Experimental data taken from patent US12370208B2, “Adenosine derivative and pharmaceutical composition comprising the same” (Brii Biosciences, Inc., priority 2019, dated 2025).
“And” between values parts separate entries of the source, which are not always exact repeats. Equal values may be shown once. Values belong to the molecule of their own block, whether it stands above or below them.

Key:
[1] = Plasma stability and conversion to EFdA in human plasma; assay type: in vitro ADME
Protocol: The pooled frozen plasma was thawed in a water bath at 37° C. prior to experiment. Plasma was centrifuged at 4000 rpm for 5 min and the clots were removed if any. The pH will be adjusted to 7.4±0.1 if required.
Preparation of test compounds and positive control (propantheline bromide): 1 mM intermediate solution was prepared by diluting 10 μL of the stock solution with 90 μL MeOH; 1 mM intermediate of positive control Propantheline was prepared by diluting 10 μL of the stock solution with 90 μL ultrapure water. 100 μM dosing solution was prepared by diluting 20 μL of the intermediate solution (1 mM) with 180 μL MeOH. 98 μL of blank plasma was spiked with 2 μL of dosing solution (100 μM) to achieve 2 μM of the final concentration in duplicate and samples were incubated at 37° C. in a water bath. At each time point (0, 10, 30, 60 and 120 min), 400 μL of stop solution (0.1% FA in MeOH containing 200 ng/mL tolbutamide and 200 ng/mL Labetalol) was added to precipitate protein and mixed thoroughly. Centrifuged sample plates at 4,000 rpm for 10 min. An aliquot of supernatant (100 μL) was transferred from each well to another plates.
Data analysis: The % remaining of test compound after incubation in plasma was calculated using following equation: % Remaining=100×(PAR at appointed incubation time/PAR at T0 time) where PAR is the peak area ratio of analyte versus internal standard (IS) (LC/MS/MS mobile phase condition: 0.1% Formic Acid in Water/0.1% Formic Acid in Acetonitrile. The appointed incubation time points are T0 (0 min), Tn (n=0, 10, 30, 60, 120 min). Liver S9 Stability

[2] = Liver S9 stability and conversion to EFdA in human liver S9; assay type: in vitro ADME; conditions: for Conversion to the target drug: liver S9 assay; for Stability in Human Liver S9 Half-life: human liver S9, 37° C.
Protocol: Intermediate solution: Dilute 5 μL of compounds or controls (7-ethoxycoumarin) from stock solution (10 mM) with 495 μL MeOH (Conc.: 100 μM, 1% DMSO, 99% MeOH). Stop solution: Cold ACN (including 100 ng/mL Tolbutamide and Labetalol as internal standard). Add 2 μL test compound or control working solution/well to all plates (T0, T5, T10, T20, T30, T60, NCF60) except matrix blank. Add 600 μL/well stop solution (cold in 4° C., including 100 ng/mL Tolbutamide/100 ng/mL Labetalol) to terminate the T0 plate, then put it on ice. Dispense 840 μL/well S9 solution to 96-well plate as reservoir according to plate map. Then add 100 μL/well to every plate by Apricot. Incubate S9 solution and compound at 37° C. for about 10 min except NCF60 and TO. After adding S9 solution and 98 μL PB buffer to NCF60, incubate at 37° C. without pre-warming, start timer 1. After 60 min, add 600 μL/well stop solution to terminate the reaction. After pre-warming, dispense 760 μL/well cofactor solution to 96-well plate as reservoir according to plate map. Then add 98 μL/well to every plate by Apricot to start reaction. Incubate at 37° C., start timer 2, Add 600 μL/well stop solution (cold in 4° C., including 100 ng/mL Tolbutamide and Labetalol) to terminate the reaction. Samples are centrifuged at 4000 rpm for 20 min. While centrifuging, load 8×new 96-well plate with 300 μL HPLC water, then transfer 100 μL supernatant, mix with water for LC/MS/MS, transferred to Bioanalytical Services for LC-MS/MS analysis. Use equation of first order kinetics to calculate t1/2 and CL: Equation of first order kinetics: […]

[3] = Plasma exposures following oral administration to beagle dogs
[4] = Prodrug formula 4-A PO 8.25 mg/kg, 12.0 hrs, individual animals 2001-2003
[5] = Prodrug formula 4-A PO 8.25 mg/kg, 24.0 hrs, individual animals 2001-2003

SMILES: C#C[C@]1(COC(=O)NCCN(C)Cc2oc(=O)oc2C)O[C@@H](n2cnc3c(N)nc(F)nc32)C[C@@H]1O [Formula 7-A, ((2R,3S,5R)-5-(6-amino-2-fluoro-9H-purin-9-yl)-2-ethynyl-3-hydroxytetrahydrofuran-2-yl)methyl (2-(methyl((5-methyl-2-oxo-1,3-dioxol-4-yl)methyl)amino)ethyl)carbamate]
- Stability in Human Plasma Formation of EFdA [1]: No
- Stability in Human Liver S9 Formation of EFdA [2]: No

SMILES: C#C[C@]1(COC(=O)OCc2oc(=O)oc2C)O[C@@H](n2cnc3c(N)nc(F)nc32)C[C@@H]1O [Formula 4-A, ((2R,3S,5R)-5-(6-amino-2-fluoro-9H-purin-9-yl)-2-ethynyl-3-hydroxytetrahydrofuran-2-yl)methyl((5-methyl-2-oxo-1,3-dioxol-4-yl)methyl) carbonate]
- Stability in Human Plasma Formation of EFdA [1]: Yes
- Conversion to the target drug ([1]; human plasma assay): can be converted to the target drug efficiently
- Stability in Human Liver S9 Formation of EFdA [2]: Yes
- Conversion to the target drug [2]: can be converted to the target drug efficiently
- AUC compared with a dose-equivalent EFdA ([3]; EFdA in dog plasma, oral): higher
- Cmax compared with a dose-equivalent EFdA ([3]; EFdA in dog plasma, oral): higher
- Prodrug formula 4-A Concentrations in Dog Plasma ([3]; Prodrug formula 4-A PO 8.25 mg/kg, 0.250 hrs, individual animals 2001-2003, 8.25 mg/kg): 1.13 ng/mL and 1.63 ng/mL and 1.09 ng/mL
- Prodrug formula 4-A Concentrations in Dog Plasma, Mean ([3]; Prodrug formula 4-A PO 8.25 mg/kg, 0.250 hrs, mean of 3 dogs): 1.28 ng/mL
- Prodrug formula 4-A Concentrations in Dog Plasma, Mean ([3]; Prodrug formula 4-A PO 8.25 mg/kg, 0.500 hrs, Mean column (one animal above BQL)): 1.68 ng/mL
- Prodrug formula 4-A Concentrations in Dog Plasma ([3]; Prodrug formula 4-A PO 8.25 mg/kg, 0.500 hrs, individual animals 2001-2003, 8.25 mg/kg): BQL (2×) and 1.68 ng/mL
- Prodrug formula 4-A Concentrations in Dog Plasma, Mean ([3]; Prodrug formula 4-A PO 8.25 mg/kg, 1.00 hrs, Mean column (one animal above BQL)): 1.43 ng/mL
- Prodrug formula 4-A Concentrations in Dog Plasma ([3]; Prodrug formula 4-A PO 8.25 mg/kg, 1.00 hrs, individual animals 2001-2003, 8.25 mg/kg): BQL (2×) and 1.43 ng/mL
- Prodrug formula 4-A Concentrations in Dog Plasma ([3]; Prodrug formula 4-A PO 8.25 mg/kg, 2.00 hrs, individual animals 2001-2003): BQL
- Prodrug formula 4-A Concentrations in Dog Plasma ([3]; Prodrug formula 4-A PO 8.25 mg/kg, 4.00 hrs, individual animals 2001-2003): BQL
- Prodrug formula 4-A Concentrations in Dog Plasma ([3]; Prodrug formula 4-A PO 8.25 mg/kg, 6.00 hrs, individual animals 2001-2003): BQL
- Prodrug formula 4-A Concentrations in Dog Plasma ([3]; Prodrug formula 4-A PO 8.25 mg/kg, 8.00 hrs, individual animals 2001-2003): BQL
- EFdA Concentrations in Dog Plasma [3, 4]: BQL
- Prodrug formula 4-A Concentrations in Dog Plasma [3, 4]: BQL
- EFdA Concentrations in Dog Plasma [3, 5]: BQL
- Prodrug formula 4-A Concentrations in Dog Plasma [3, 5]: BQL
- Prodrug detected in the systemic circulation ([3]; dogs, oral): minimal

SMILES: C#C[C@]1(COC(=O)OCc2oc(=O)oc2C)O[C@@H](n2cnc3c(N)nc(F)nc32)C[C@@H]1OC(=O)OCc1oc(=O)oc1C [Formula 4-C, [(2R,3S,5R)-5-(6-amino-2-fluoro-purin-9-yl)-2-ethynyl-2-[(5-methyl-2-oxo-1,3-dioxol-4-yl)methoxycarbonyloxymethyl]tetrahydrofuran-3-yl] (5-methyl-2-oxo-1,3-dioxol-4-yl)methyl carbonate]
- Conversion to the target drug [1]: can be converted to the target drug efficiently
- Stability in Human Plasma Formation of EFdA [1]: Yes
- Stability in Human Liver S9 Formation of EFdA [2]: Yes
- Stability in Human Liver S9 Half-life [2]: C (C: <50 minutes)
- Conversion to the target drug [2]: can be converted to the target drug efficiently

SMILES: C#C[C@]1(CO)O[C@@H](n2cnc3c(NC(=O)OC(C)C)nc(F)nc32)C[C@@H]1O [Formula 3-A, isopropyl (9-((2R,4S,5R)-5-ethynyl-4-hydroxy-5-(hydroxymethyl)tetrahydrofuran-2-yl)-2-fluoro-9H-purin-6-yl)carbamate]
- Stability in Human Plasma Formation of EFdA [1]: No
- Stability in Human Liver S9 Formation of EFdA [2]: No
- Stability in Human Liver S9 Half-life [2]: B (B: 50-200 minutes)

The next lines start with results.

- Stability in Human Plasma Formation of EFdA [1]: No
- Stability in Human Liver S9 Formation of EFdA [2]: Yes
SMILES: C#C[C@]1(CO)O[C@@H](n2cnc3c(NCc4oc(=O)oc4C)nc(F)nc32)C[C@@H]1O [Formula 6-A, 4-(((9-((2R,4S,5R)-5-ethynyl-4-hydroxy-5-(hydroxymethyl)tetrahydrofuran-2-yl)-2-fluoro-9H-purin-6-yl)amino)methyl)-5-methyl-1,3-dioxol-2-one]
- Conversion to the target drug [2]: can be converted to the target drug efficiently

- Stability in Human Plasma Formation of EFdA [1]: No
- Stability in Human Liver S9 Formation of EFdA [2]: No
SMILES: C#C[C@]1(COC(=O)NC)O[C@@H](n2cnc3c(N)nc(F)nc32)C[C@@H]1O [Formula 5-A, ((2R,3S,5R)-5-(6-amino-2-fluoro-9H-purin-9-yl)-2-ethynyl-3-hydroxytetrahydrofuran-2-yl)methyl methylcarbamate]

- Stability in Human Plasma Formation of EFdA [1]: No
- Stability in Human Liver S9 Formation of EFdA [2]: No
SMILES: C#C[C@]1(COC(=O)NC(C)C)O[C@@H](n2cnc3c(N)nc(F)nc32)C[C@@H]1O [Formula 2-A, ((2R,3S,5R)-5-(6-amino-2-fluoro-9H-purin-9-yl)-2-ethynyl-3-hydroxytetrahydrofuran-2-yl)methyl isopropylcarbamate]

- EFdA Concentrations in Dog Plasma ([3]; EFdA PO 5 mg/kg, 6.00 hrs, individual animals 4001-4003): BQL
- EFdA Concentrations in Dog Plasma ([3]; EFdA PO 5 mg/kg, 8.00 hrs, individual animals 4001-4003): BQL
- EFdA Concentrations in Dog Plasma ([3]; EFdA PO 5 mg/kg, 12.0 hrs, individual animals 4001-4003): BQL
- EFdA Concentrations in Dog Plasma ([3]; EFdA PO 5 mg/kg, 24.0 hrs, individual animals 4001-4003): BQL
- EFdA Exposure in Plasma Cmax ([3]; oral EFdA 5 mg/kg, dogs): 392 ng/mL
- EFdA Exposure in Plasma AUC ([3]; oral EFdA 5 mg/kg, dogs, AUC0-24 h): 792 ng·h/mL
SMILES: C#C[C@]1(CO)O[C@@H](n2cnc3c(N)nc(F)nc32)C[C@@H]1O [EFdA, (2R,3S,5R)-5-(6-amino-2-fluoro-9H-purin-9-yl)-2-ethynyl-2-(hydroxymethyl)tetrahydrofuran-3-ol, reference compound]
